Experimental data: US12673954B2 (BRISTOL-MYERS SQUIBB COMPANY, priority 2021, dated 2026)

What was measured:
[1] = test system: IRF pathway, THP1-Dual™ cells; experiment: STING reporter assay in THP1-Dual cells, IRF pathway (Lucia luciferase, QUANTI-Luc); assay type: cell-based, human; conditions: Homo sapiens, THP1-Dual, 20 h, THP1-Dual cells, 10% human plasma, 20 hours; Lucia luciferase; 100% activation = 100 μM cGAMP; read-out: IRF (EC50 μM)
Method in brief: (§1)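 THP-1-derived dual-reporter cells treated with serially diluted compounds (final top concentration 100 μM) for 20 h at 37° C. NF-κB read as SEAP via QUANTI-Blue at OD620; IRF read as Lucia luminescence via QUANTI-Luc after 5 min. 100% activation set by 100 μM cGAMP, baseline by DMSO.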

[2] = test system: NF-κB pathway, THP1-Dual™ cells; experiment: STING reporter assay in THP1-Dual cells, NF-κB pathway (SEAP, QUANTI-Blue); assay type: cell-based, human; conditions: Homo sapiens, THP1-Dual, 20 h, THP1-Dual cells, 10% human plasma, 20 hours; SEAP; 100% activation = 100 μM cGAMP; read-out: NFkB (EC50 μM)
Method in brief: as §1

SMILES	EC50 [1]	EC50 [2]
COC(=O)c1c(F)ccc2cc(CNC(=O)c3cnn4cccnc34)oc12 [EXAMPLE 107, Methyl 6-fluoro-2-((pyrazolo[1,5-a]pyrimidine-3-carboxamido)methyl)benzofuran-7-carboxylate]	1.4 µM	2 µM
Cc1cc(C(=O)O[C@@H](C)C(F)(F)F)c2oc(C(C)NC(=O)c3cnn4cccnc34)cc2c1 (stereo partly drawn) [EXAMPLE 277, (S)-1,1,1-Trifluoropropan-2-yl 5-methyl-2-(1-(pyrazolo[1,5-a]pyrimidine-3-carboxamido)ethyl)benzofuran-7-carboxylate]	13 µM	16 µM
[2H]C([2H])([2H])OC(=O)c1cccc2cc(CN3CCc4ccncc4C3=O)oc12 [EXAMPLE 353, Methyl-D3 2-((1-oxo-3,4-dihydro-2,7-naphthyridin-2(1H)-yl)methyl)benzofuran-7-carboxylate]	10 µM	18 µM
COC(=O)c1cc(C)cc2cc(CNC(=O)c3cncnc3OC)oc12 [Example 94, Methyl 2-((4-methoxypyrimidine-5-carboxamido)methyl)-5-methylbenzofuran-7-carboxylate]	1.8 µM	2.1 µM
O=C(OCC(F)(F)C(F)(F)CO)c1cc(Cl)cc2cc(CNC(=O)c3cnn4cccnc34)oc12 [EXAMPLE 251, 2,2,3,3-Tetrafluoro-4-hydroxybutyl 5-chloro-2-((pyrazolo[1,5-a]pyrimidine-3-carboxamido)methyl)benzofuran-7-carboxylate]	0.93 µM	1 µM
O=C(OCC(F)(F)F)c1cc(Cl)cc2cc(CNC(=O)c3cnc4cccnn34)oc12 [EXAMPLE 369, 2,2,2-Trifluoroethyl 5-chloro-2-((imidazo[1,2-b]pyridazine-3-carboxamido)methyl)benzofuran-7-carboxylate]	0.91 µM	1.1 µM
COc1ccn2ncc(C(=O)NCc3cc4cc(Cl)cc(C(=O)O)c4o3)c2n1 [EXAMPLE 139, 5-Chloro-2-((5-methoxypyrazolo[1,5-a]pyrimidine-3-carboxamido)methyl)benzofuran-7-carboxylic acid]	90 µM	> 100 µM
O=C(OCC(F)(F)F)c1cccc2cc(CN3CCc4ccncc4C3=O)oc12 [EXAMPLE 215, 2,2,2-Trifluoroethyl 2-((1-oxo-3,4-dihydro-2,7-naphthyridin-2(1H)-yl)methyl)benzofuran-7-carboxylate]	12 µM	14 µM
O=C(OCC(F)F)c1cccc2cc(CN3CCc4ccncc4C3=O)oc12 [EXAMPLE 214, 2,2-Difluoroethyl 2-((1-oxo-3,4-dihydro-2,7-naphthyridin-2(1H)-yl)methyl)benzofuran-7-carboxylate]	8.2 µM	9.3 µM
O=C(OCC(F)(F)F)c1ccc(Cl)c2cc(CNC(=O)c3cnn4cccnc34)oc12 [EXAMPLE 357, 2,2,2-Trifluoroethyl 4-chloro-2-((pyrazolo[1,5-a]pyrimidine-3-carboxamido)methyl)benzofuran-7-carboxylate]	0.9 µM	1 µM
COC(=O)c1cc(OC)cc2cc(CNC(=O)c3cnn4cccnc34)oc12 [EXAMPLE 102, Methyl 5-methoxy-2-((pyrazolo[1,5-a]pyrimidine-3-carboxamido)methyl)benzofuran-7-carboxylate]	2.5 µM	3 µM
C[C@@H](OC(=O)c1cc(F)cc2c(Cl)c(CNC(=O)c3cnn4cccnc34)oc12)C(F)(F)F [EXAMPLE 288, (R)-1,1,1-Trifluoropropan-2-yl 3-chloro-5-fluoro-2-((pyrazolo[1,5-a]pyrimidine-3-carboxamido)methyl)benzofuran-7-carboxylate]	0.36 µM	0.36 µM
